From patent US4670432A, “Pyrazolopyridine derivatives useful in treating inflammation and allergic conditions” (Beecham Group p.l.c., priority 1984, dated 1987)

How the values were obtained:
[1] = tested on: mouse sensitised to oxazolone; test: Mouse Oxazolone Screen (topical anti-inflammatory activity); assay type: in vivo; conditions: 1 h before oxazolone challenge, ears weighed 24 h later
Method: Compounds were tested for topical anti-inflammatory activity in a screen using the mouse sensitised to oxazolone, by a method modified from that of Dietrich and Hess [Dietrich, F. M., and Hess, R., Int. Arch. Allergy, (1970), 38, 246-259].
Mice were sensitised with oxazolone (2 mg in 20 μl ethanol) on a shaved area of the abdomen. Five days later, the animals received 10 μl THF/MeOH (1:1 v/v) on the right ear, and the test compound in the same solvent on the left ear. One hour later, the animals were challenged with 100 μg oxazolone in 10 μl acetone on each ear. Ear weights were measured 24 h later. Percentage inhibition of the inflammatory swelling refers to the increase in weight of left ears (oxazolone plus compound) compared with solvent-treated negative controls, as a proportion of the increase in weight of right ears (oxazolone alone) over similar controls.

cantharidin mouse ear = test: Mouse Cantharidin Screen (topical anti-inflammatory activity); assay type: in vivo; conditions: applied with cantharidin, 24 h
Method: Compounds were tested for topical anti-flammatory activity in a cantharidin mouse ear screen, modified from Swingle et al [Swingle, K. F., Reiter, M. J. and Schwartzmiller, D. H., Arch. Int. Pharmacodyn. (1981), 254, 168-176].
25 μg cantharidin (in 10 μl THF/MeOH) was applied to both ears. Compound, in the same solvent, was applied at the same time, to the left ear only. Ears were weighed 24 h after cantharidin application. Percentage inhibition of the acute inflammatory swelling refers to the increase in weight of left ears (catharidin plus compound) compared with solvent-treated negative controls, as a proportion of the increase in weight of right ears (cantharidin alone) over similar controls.

5-Lipoxygenase = test: RBL-1 5-Lipoxygenase Screen; assay type: biochemical; conditions: 20 μM; 10,000 g supernatant from RBL-1 cells, 29° C.
Method: 5-Lipoxygenase enzyme was prepared as a 10,000 g supernatant from RBL-1 cells by the method of Jakschik [Jakschik, B. A., Sun, F. F., Lee, L. M. and Steinhoff, M. M., 1980, Biochem. Biophys. Res. Comm. 95, 103]. The 10,000 g supernatant was diluted with homogenization buffer to the equivalent of 1.5-2.5×10^7 cells ml^-1 and made 2 mM with respect to CaCl2. Aliquots of 0.5 ml were then dispensed into tubes, and incubated at 29° C. with 5 γl ethanol or compound in ethanol at the desired concentration for 2 min. Then [1-^14 C] arachidonic acid was added in buffer to give a final concentration of 6.3. μm and 0.2 μCi per incubation, and the reaction continued at 29° C. for 2 min. The reaction was terminated by adding 1 ml of acetone and cooling on ice. 0.5 ml of ice cold saline and 10 μl of 2N formic acid were added, and the mixture was extracted with 2×2 ml of chloroform. The extract was stored under N2 at -20° C. until analysis by chromatography. Activity was measured as the percentage of total radioactivity found in 5-HETE and 5,12-diHETE, and inhibition calculated as the decrease in formation of the sum of these two species in compound-treated incubates relative to control incubates.

SMILES	% Inhibition (inflammatory swelling, ear weight) ([1]; 500 μg/ear)	% Inhibition (acute inflammatory swelling, ear weight) (cantharidin mouse ear; 200 μg/ear)	% Inhibition (acute inflammatory swelling, ear weight) (cantharidin mouse ear; 500 μg/ear)	% Inhibition (inflammatory swelling, ear weight) ([1]; 200 μg/ear)	inhibition (decrease in formation of 5-HETE and 5,12-diHETE) (5-Lipoxygenase)
Cc1cc(NCCCO)c2[nH]ncc2n1 [Example 2, 7-[3-hydroxypropylamino]-5-methyl-1H-pyrazolo[4,3-b]pyridine]	82%	82%	–	–	–
Cc1cc(NCCCN(C)C)c2[nH]ncc2n1 [Example 6, 7-[3-Dimethylaminopropylamino]-5-methyl-1H-pyrazolo[4,3-b]pyridine]	–	–	97%	–	–
Cc1cc(NCCO)c2[nH]ncc2n1 [Example 3, 7-[2-Hydroxyethylamino]-5-methyl-1H-pyrazolo[4,3-b]pyridine]	–	76%	–	65%	–
COCCNc1cc(C)nc2c[nH]nc12 [Example 4]	–	57%	–	52%	–
C=CCNc1ccnc2cn[nH]c12 [Example 7, 7-Allylamino-1H-pyrazolo[4,3-b]pyridine]	–	–	83%	–	–
C=CCNc1cc(C)nc2cn[nH]c12 [Example 1, 7-Allylamino-5-methyl-1H-pyrazolo[4,3-b]pyridine]	–	88%	–	62%	39%
C=CCNc1cc(C)nc2cn(C)nc12 [Example 5, 7-Allylamino-2,5-dimethyl-pyrazolo[4,3-b]pyridine]	–	68%	–	71%	–
